According to PubChem BioAssay AID179 (DTP/NCI, 2004):
Where “and” joins values, the source holds several entries; their conditions need not be identical. Equal values may be shown once. Calls of active or inactive are those of the source.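 How the source made its calls: active means compounds giving half or more protection of infected cells from virus-caused growth loss, again on retest; inactive means the rest.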

Test system: CEM cells HIV-1 protection, formazan growth assay
Assay: NCI AIDS Antiviral Assay
Conditions: for IC50: measured here: growth of uninfected CEM cells
Method in brief: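 Protection of CEM cells against HIV-1 was scored from cell growth (soluble formazan) across five concentrations, with parallel uninfected cells. Lack of protection may reflect toxicity.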

SMILES | EC50 [µM] | IC50 | outcome
C=C1CC[N+]2(CC(C)C)CCCC12 (configuration not stated) | > 501 | > 501 µM | –
S=P(Oc1cc(Cl)c(Cl)cc1Cl)(N1CCN(c2cccc(Cl)c2)CC1)N1CCN(c2cccc(Cl)c2)CC1 | > 11.2 | > 11.2 µM | –
CC12CC(c3ccccc3N1)C1CC2(C)Nc2ccccc21 | > 64.6 | > 64.6 µM | –
Cc1cc(C)nc(NS(=O)(=O)c2ccc(NC(=O)c3cccc4c(Nc5ccc(S(=O)(=O)Nc6nc(C)cc(C)n6)cc5)c5ccc(Cl)cc5nc34)cc2)n1 | > 85.1 | > 85.1 µM | –
C/C(=C1/CCCC2(N=NCC2c2ccccc2)C1=O)c1ccccc1 (configuration not stated) | > 8.32 | > 8.32 µM | –
[N-]=[N+]=Nc1ccc2c(c1)Sc1ccccc1N2CCCCCl | > 200 | 26.9 µM | –
COC(=O)C(Cc1ccc(Oc2cc(CC(NC(=O)c3ccccc3)C(=O)OC)ccc2OC)cc1)NC(=O)c1ccccc1 (configuration not stated) | > 200 | 16.6 µM | –
O=C1CN(c2ccc(Cl)cc2)C(=O)CN1NCNN1CC(=O)N(c2ccc(Cl)cc2)CC1=O | > 200 | > 200 µM | –
Cc1ccc(/C=C2\CCS(=O)(=O)c3ccccc3C2=O)cc1 | > 200 | 9.77 µM | –
CC(=O)c1c(O)n(-c2ccc(C)cc2)c(=O)c2c(N)n[nH]c12 | 100 | 117 µM | –
Cc1ccc(N2C(=O)/C(=C/c3ccc(N(CCC#N)CCC#N)cc3)CC2(O)c2ccccc2)cc1 (configuration not stated) | > 7.94 | > 7.94 µM | –
N=C([Se])c1ncn(C2OC(CO)C(O)C2O)c1N (configuration not stated) | > 389 | 30.2 µM | –
CSC1=N/C(=C\c2ccc(Cl)cc2)C(=O)N1CN1CCOCC1 | > 200 | 33.1 µM | –
O=[N+]([O-])C[C@@]12O[C@]3(O)C4C5CC(C6C5C3C61)C42 (some centres not stated) | > 200 | > 200 µM | –
COc1ccc2nccc3c2c1NC(Cl)=C3 | > 200 | 1.58 µM | –
C/C=C(\CC)C(C#N)O[Si](C)(C)C (configuration not stated) | – | – | inactive
C[C@H]1CCCCC[C@@H]2CC(=O)CC2C(=O)CCC(=O)O1 (some centres not stated) | > 200 | > 200 µM | –
Clc1ccc(C(Cc2ccccc2)c2c(Cl)nc(N3CCNCC3)nc2Cl)cc1 (configuration not stated) | > 200 | 9.12 µM | –
CC(=O)NNC(=S)/N=C\c1c(O)[nH]c(=O)[nH]c1=O | > 200 | > 200 µM | –
CCOC(=O)c1c2ccccc2n2c(=O)n(-c3ccc(OC)cc3)nnc12 | > 57.5 | 32.4 µM | –
O=C1NC(=S)N/C1=C\c1ccc(Br)s1 | > 200 | 112 µM | –
CCn1nc(-c2ccccc2)c2c1N(C)c1ccccc1-n1c(-c3ccccc3)nnc1-2 | > 200 | 26.3 µM | –
CCN(CC)CCC(=O)c1ccc(Sc2ccc(F)cc2)cc1 | – | – | inactive

SMILES | EC50 [µM] | IC50 | outcome
O=S1C=C(C2=COCCC2)OC1 (configuration not stated) | > 195 | > 195 µM | –
COc1ccc(/C=C(\NC(=O)c2ccccc2)C(=O)NN(C)c2ccnc3cc(Cl)ccc23)cc1OC | > 200 | 56.2 µM | –
CCOC(=O)/C(F)=C/c1ccc(C#N)cc1 | > 33.1 | > 33.1 µM | –
N#CCCN(C(=O)Nc1ccccc1)[C@H]1CCCC[C@@H]1N(C(=O)Nc1ccccc1)c1ccccc1 | > 200 | 33.1 µM | –
CCC1CCCCN1CC(C(C)=O)C(c1ccccc1)c1c(O)c2ccccc2oc1=O (configuration not stated) | > 69.2 | > 69.2 µM | –
COC(=O)C1=C(C)C=C(N2CCOCC2)C(C(=O)OC)C1c1ccccc1 (configuration not stated) | > 200 | > 200 µM | –
CN1C(=O)CC(Sc2ccccc2)c2cc(Cl)ccc21 (configuration not stated) | > 200 | 15.8 µM | –
NC(N)=NC(N)=Nc1cccc(S(=O)(=O)c2cccc(N=C(N)N=C(N)N)c2)c1 | 126 | > 200 µM | –
CCOC(=O)CCC(NC(=O)c1ccc(Nc2cnc3cc(C(F)(F)F)ccc3n2)cc1)C(=O)OCC (configuration not stated) | > 200 | 191 µM | –
COc1ccc(/C=C2/N=C(c3ccccc3)OC2=O)cc1OC | > 23.4 | > 23.4 µM | –
Cc1c(O)c(C)c2c(C)cn(C(=O)C(C)(C)C)c2c1C | > 200 | 30.2 µM | –
[N-]=[N+]=NC12CC3C4CC5CC3C(C1)C(C5)C4C2 | > 282 | 162 µM | –
O=C1C(N=Nc2ccccc2)Sc2nc3ccccc3n21 (configuration not stated) | > 200 | 85.1 µM | –
CCn1c(O)c(C=Nc2ccccc2)s/c1=N/Nc1nc(-c2ccc(O)c(O)c2)cs1 | > 200 | 14.1 µM | –
Nc1ncnc2c1ncn2C1OC(COP(=O)(O)O)C(O)C1O (configuration not stated) | > 200 | > 200 µM | –
CCSC(=O)N1c2ccc(OC)cc2C=CC1C#N (configuration not stated) | > 0.692 | 0.0407 µM | –
COc1cc(C(c2c(O)c3ccccc3oc2=O)N2CCCC2)cc(OC)c1OC (configuration not stated) | > 200 | 107 µM | –
Cn1cnc([N+](=O)[O-])c1Sc1nc2cccnc2s1 | > 170 | 4.57 µM | –
COC(=O)CC=C(c1cc(Cl)c(OC)c(C(=O)OC)c1)c1cc(Cl)c(OC)c(C(=O)OC)c1 | > 200 | 41.7 µM | –
O=C(/C=C/c1ccc(O)c(O)c1)CC(=O)/C=C/c1ccc(O)c(O)c1 | > 200 | 10.2 µM | –
Nc1nc[n+](Cc2ccccc2CCO)c2nc[nH]c12 | > 37.2 | > 37.2 µM | –
Nc1nnc(-c2ccco2)c(-c2ccco2)n1 | > 200 | 186 µM | –
Cc1cnc(C)c(-c2cc3ccccc3[nH]2)n1 | > 32.4 | > 32.4 µM | –

SMILES | EC50 [µM] | IC50 | outcome
Fc1cccc(F)c1C1SCc2nc3ccccc3n21 (configuration not stated) | – | 41.7 µM and 56.2 µM | –
CCCCOP(=O)(OCCCC)/C(C#N)=C/c1ccc(C)o1 | > 200 | 102 µM | –
O=c1oc2ccccc2c(O)c1[N+](=O)[O-] | > 200 | > 200 µM | –
CCOC(=O)C1(O)Nc2ncncc2N(C)C1=O (configuration not stated) | > 200 | > 200 µM | –
Nc1ccc(Cn2ccc3c4c(N)nc(N)nc4ccc32)cc1 | – | – | inactive
CC1(C)CSC(=S)N1 | > 200 | > 200 µM | –
COc1ccc(C(O)C(=O)c2nc3ccc([N+](=O)[O-])cc3[nH]c2=O)cc1 (configuration not stated) | 107 | 129 µM | –
Cc1ccc(NC(=O)CC(=O)n2nc(C)c(N=Nc3ccccc3Cl)c2C)cc1 | – | – | inactive
Cc1[nH]c2ccccc2c1C1Cc2ccccc2N1C(=O)C#Cc1ccc([N+](=O)[O-])cc1 (configuration not stated) | – | – | inactive
Cc1cc(N(CCCl)CCCl)ccc1N=Nc1ccccc1 | > 200 | 19.5 µM | –
CCN(CC)CC(=O)Nc1cccc(Cl)c1 | > 200 | > 200 µM | –
CCOC(OC(C)=O)[C@@H]1C=C[C@H](C)N(c2ccc([N+](=O)[O-])cc2)O1 (some centres not stated) | > 40.7 | 2.24 µM | –
Clc1ccc(Nc2nn3c(CCCCCCCCc4nnc5sc(Nc6ccc(Cl)cc6)nn45)nnc3s2)cc1 | > 200 | 112 µM | –
O=C(c1ccccc1)c1ccc2cccc(O)c2n1 | > 75.9 | 50.1 µM | –
O=C(Nn1c(-c2ccccc2)nc2ccccc2c1=O)c1ccc(CS)cc1 | – | – | inactive
COc1ccc(C(=O)c2ccccc2)c(O)c1 | > 200 | > 200 µM | –
Oc1c2cccc1Cc1cccc3c1OCCOCCOCCOCCOc1c(cccc1Cc1cccc(c1O)C3)C2 | > 200 | 50.1 µM | –
Cc1[nH]c2ncnc(N)c2c1Cc1ccccc1 | > 200 | 2.63 µM | –
NC(=O)c1cccc(C2OC(COP(=O)(O)O)C(O)C2O)c1 (configuration not stated) | > 661 | 3.47 µM | –
COc1ccc(-c2nnc3n(Cc4ccccc4)c4ccccc4n3c2=O)cc1 | > 200 | > 200 µM | –
Cc1c(Cl)c(=O)oc2cc(O)ccc12 | > 324 | 174 µM | –
CCOP(=O)(OCC)C(Nc1cccc(F)c1)c1ccc(N(C)C)cc1 (configuration not stated) | > 200 | 97.7 µM | –
Cc1ccc(S(=O)(=O)c2ccccn2)cc1 | 132 | 380 µM | –

SMILES | EC50 [µM] | IC50 | outcome
O=[N+]([O-])c1ccc(N2N=NC3C4CCC(C4)C32)cc1 (configuration not stated) | > 95.5 | 43.7 µM | –
Oc1[nH]c(=S)[nH]c1/C=C1/C(c2ccccc2)=Nc2ccccc21 | > 200 | 9.33 µM | –
C[n+]1c2ccccc2c(CNc2ccc(S(=O)(=O)N=C(N)N)cc2)c2ccccc21 | – | – | inactive
O=C1OC(CN2CCOCC2)CN1/N=C/c1ccc([N+](=O)[O-])o1 (configuration not stated) | > 200 | 41.7 µM | –
COc1cc2cc3c4c(cc(OC)c(OC)c4c2cc1OC)CCN3C(=O)CCC(=O)O | > 200 | 123 µM | –
COC1=NS(=O)(=O)C(C)C(C)(C)O1 (configuration not stated) | > 427 | > 427 µM | –
Cc1ccc(Cc2c(=O)[nH]nc3ccccc23)cc1 | > 39.8 | > 39.8 µM | –
CCOC(=O)c1c2c(nc3c1CCCC3)CCCC2 | > 200 | 64.6 µM | –
CC1(C)COC2(C)ON12 (configuration not stated) | > 200 | > 200 µM | –
CN(C)c1ccc(C(C#N)NNC(=O)Cc2ccccc2)cc1 (configuration not stated) | > 85.1 | > 85.1 µM | –
CN(C)c1ccc(C(=CC=C2C(=O)NC(=O)NC2=O)c2ccc(N(C)C)cc2)cc1 | > 4.9 | > 4.9 µM | –
Cc1ccc(C)c(NC(=O)/C(=N\NC(N)=S)C(C#N)c2ccccc2)c1 (configuration not stated) | > 19.5 | > 19.5 µM | –
Cc1c(C)n(-c2ccccc2)c2nc(S(C)(=O)=O)nc(S(C)(=O)=O)c12 | > 200 | 0.288 µM | –
Cc1ccc(N=Nc2ccc(O)c(=O)cc2)cc1 | > 11.2 | 6.92 µM | –
c1ccc2c(c1)CCc1[nH]c3c(c1-2)-c1ccccc1CC3 | > 200 | 30.9 µM | –
Nc1ccc([N+](=O)[O-])c(S(=O)(=O)O)c1 | > 1150 | > 1150 µM | –
N#CCN1CCCCCc2ccccc21 | > 200 | > 200 µM | –
Cc1cn(C2CC(CCN(O)CC3OC(n4cc(C)c(=O)[nH]c4=O)CC3O[Si](C)(C)C(C)(C)C)C(CO[Si](C)(C)C(C)(C)C)O2)c(=O)[nH]c1=O (configuration not stated) | > 200 | 11.5 µM | –
O=C(CCCC[n+]1ccccc1)Sc1ccccc1C(=O)Nc1ccc(S(=O)(=O)Nc2ncccn2)cc1 | 17 | 56.2 µM | –
C=CCOCCC(CC=C)C(=O)CC(=O)OC (configuration not stated) | > 251 | 195 µM | –
COC(=O)N1C2C(C[C@@]1(C)C(=O)OC)c1ccccc1N2S(=O)(=O)c1ccccc1 (some centres not stated) | > 200 | > 200 µM | –
